{"source": "patent US20240108632A1", "about": "“PHARMACEUTICAL COMPOSITION FOR ADMINISTRATION AS OPHTHALMIC DROP TO PATIENT REQUIRING OPTIC NERVE PROTECTION” (PINOTBIO, INC., priority 2020, published 2024)", "key": {"[1]": {"details": "cited from earlier work"}, "normal patients": {"tested_on": "normal patients", "details": "cited from earlier work"}, "[2]": {"tested_on": "cynomolgus macaque model of glaucoma", "assay": "Retinal nerve fiber layer thickness by OCT in cynomolgus macaque model of glaucoma", "format": "in vivo", "protocol": "(§1) Three weeks before the first laser trabeculoplasty, IOP was measured via a tomometer (SPHPR-320-61), once per week for three weeks. The first laser trabeculoplasty was performed in one eye for each macaque. Two weeks later, laser trabeculoplasty was repeated in the same eye (Week 0).\n(§2) One week after the second laser trabeculoplasty (Week 1), IOP was measured and retinal nerve fiber layer (RNFL) thickness was measured via optical coherence tomography (OCT; RS3000 Advance, Nidek Co. Ltd., Gamagoori, Japan) (SPHPR- 320-58). The day after group assignment, the eyes were instilled with either vehicle, KR-67607 or brimonidine twice a day. On Day 1, the effect of treatment on IOP over time was measured before treatment and 1, 2, 4, and 8 hrs. after instillation. At the same time, blood samples were obtained. From the effects of dosing observed on Day 1, it was determined that 2 hrs. was a reasonable time time-to-test following instillation for subsequent observations.\n(§3) Intraocular pressures were obtained at Weeks 2, 3, 4, 5, 7 and 9. Optical coherence tomography and color fundus photography (CFP) were performed at Weeks 1, 3, 5, 7, and 9 (SPHPR-320-56)."}, "[3]": {"tested_on": "cynomolgus macaque model of glaucoma", "assay": "Funduscopy in cynomolgus macaque model of glaucoma", "format": "in vivo", "protocol": "as §1, §2, §3"}, "[4]": {"tested_on": "cynomolgus macaque model of glaucoma", "assay": "Intraocular pressure in cynomolgus macaque model of glaucoma (laser trabeculoplasty)", "format": "in vivo", "protocol": "as §1, §2, §3\nFollowing measurements at Week 9, G3 macaques was randomized into two groups based on IOP, and the effect of KR-67607 (1.5 mg/mL, 3.0 mg/mL) on IOP was evaluated."}}}
{"compound": "2-hydroxypropyl-β-cyclodextrin [HP-β-CD]", "values": [{"measurement": "solubility in water", "setting": "[1]", "result": "more than 1 g/ml"}]}
{"compound": "CC1(C)[C@@H](OC(=O)CCC(=O)O)CC[C@]2(C)[C@H]3C(=O)C=C4[C@@H]5C[C@@](C)(C(=O)O)CC[C@]5(C)CC[C@@]4(C)[C@]3(C)CC[C@@H]12", "note": "[carbenoxolone]", "values": [{"measurement": "reduce intraocular pressure to levels as low as", "setting": "normal patients", "result": 20, "unit": "%"}]}
{"compound": "Brimonidine tartrate [reference compound]", "values": [{"measurement": "number of eyes with RNFL thickness greater than 50% compared to baseline", "setting": "[2]; Week 9, 6 eyes per group", "result": 1}, {"measurement": "RNFL thinning in glaucomatous eyes", "setting": "[2]; repeated treatment, compared to vehicle-treated (G1)", "result": "appeared to inhibit"}, {"measurement": "animals with a lesser degree of cupping compared to G1", "setting": "[3]; Week 3 to Week 5", "result": "three animals"}, {"measurement": "animals with a small or lesser degree of cupping", "setting": "[3]; Week 9", "result": "one animal"}, {"measurement": "maximum decrease of IOP, contralateral normal eye", "setting": "[4]; Day 1 dosing, 2 hours after dosing", "result": "4.1±0.9", "unit": "mmHg"}, {"measurement": "maximum decrease of IOP, glaucomatous eye", "setting": "[4]; Day 1 dosing, 2 hours after instillation", "result": "19.5±2.7", "unit": "mmHg"}, {"measurement": "effect on trough IOP value", "setting": "[4]; glaucomatous eyes, repeated treatment twice a day, brimonidine tartrate 0.1%, KR-67607 1.5 mg/mL", "result": "did not significantly affect"}, {"measurement": "maximum decrease of IOP, normal eye", "setting": "[4]; over weeks", "result": "4.9±0.8", "unit": "mmHg"}]}
